From patent US20050277699A1, “Method of decreasing sebum production and pore size” (Unilever Home & Personal Care USA, Division Of Conopco, Inc., priority 2004, published 2005)

Test system: human sebocytes
Experiment: Sebocyte assay: 14C-acetate label remaining in cultured sebocytes (sebum suppression)
Format: cell-based
Description: Secondary cultures of human sebocytes obtained from an adult […] were grown in 96-well tissue culture plates (Packard) until three days post-confluence. Sebocyte growth medium consisted of Clonetics Keratinocyte Basal Medium (KBM) supplemented with 14 ug/ml bovine pituitary extract, 0.4 ug/ml hydrocortisone, 5 ug/ml insulin, 10 ng/ml epidermal growth factor, 1.2×10^−10 M cholera toxin, 100 units/ml penicillin, and 100 ug/ml streptomycin. All cultures were incubated at 37° C. in the presence of 7.5% CO2. Medium was changed three times per week. On the day of experimentation, the growth medium was removed and the sebocytes washed three times with sterile Dulbecco's Modified Eagle Medium (DMEM; phenol red free). Fresh DMEM (200-microliters per well) was added to each sample (5 replicates) with 5-microliters of test agent (DL-α-Difluoromethylornithine hydrochloride) solubilized in water. Controls consisted of addition of water alone. Each plate was returned to the incubator for 20-hours followed by the addition of ^14C-acetate buffer (5 mM final concentration, 56 mCi/mmol specific activity). Sebocytes were returned to the incubator for 4-hours afterwhich each culture was rinsed 3-times with phosphate buffered saline to remove unbound label. Radioactive label remaining in the sebocytes was determined using a Packard TopCount scintillation counter. Statistical significance (p value) was calculated using student's t-test. Phenol Red, a known sebum suppressive agent, was employed as a positive control. […] The experiment was repeated as above with modifications. On the day of experimentation, the growth medium was removed and the sebocytes washed three times with sterile Dulbecco's Modified Eagle Medium (DMEM; phenol red free). Fresh DMEM was added to each sample (3 replicates) with 5-microliters of test agent (DL-a-Difluoromethylornithine hydrochloride) solubilized in water. Controls consisted of addition of water alone. Each plate was returned to the incubator for 68-hours followed by the addition of ^14C-acetate buffer (5 mM final concentration, 56 mCi/mmol specific activity). Sebocytes were returned to the incubator for 4-hours, followed by rinsing each culture 3-times with phosphate buffered saline to remove unbound label. Radioactive label remaining in the sebocytes was determined using a Packard TopCount scintillation counter. Statistical significance (p value) was calculated using student's t-test.

Row | Structure (SMILES) | % of Control (radioactive label remaining in the sebocytes) (10 uM, 20-hours incubation then 4-hours 14C-acetate (24-hours), 5 replicates) [%] | % of Control (radioactive label remaining in the sebocytes) (10 uM, 68-hours incubation then 4-hours 14C-acetate, 3 replicates) [%] | % of Control (radioactive label remaining in the sebocytes) (1000 uM, 20-hours incubation then 4-hours 14C-acetate (24-hours), 5 replicates) [%] | % of Control (radioactive label remaining in the sebocytes) (1000 uM, 68-hours incubation then 4-hours 14C-acetate, 3 replicates) [%] | sebum suppressive activity (in words) (after prolonged incubation (68-hours + 4-hours)) | activity at 28.2 µM (Homo sapiens, 28.2 uM, 20-hours incubation then 4-hours 14C-acetate (24-hours), positive control, read-out: % of Control (radioactive label remaining in the sebocytes)) [%] | activity at 282 µM (Homo sapiens, 282 uM, 20-hours incubation then 4-hours 14C-acetate (24-hours), positive control, read-out: % of Control (radioactive label remaining in the sebocytes)) [%]
1 | Cl.NCCCC(N)(C(=O)O)C(F)F (racemic) [DFMO, DL-α-Difluoromethylornithine hydrochloride] | 95.5 | 59.5 | 88.0 | 41.4 | enhanced sebum suppressive activity |  | 
2 | O=S1(=O)OC(c2ccc(O)cc2)(c2ccc(O)cc2)c2ccccc21 [Phenol Red] |  |  |  |  |  | 22.1 | 34.5
